Where two headings read alike, the source gives them in different places.
Columns and labels:
[1] = Lipophilicity LogDpH=7.4, shake flask method; assay type: physicochemical; details: PBS (pH = 7.4)/n-octanol
Description: The LogDpH=7.4 was determined using a modified shake flask method as previously described.

AR42J cells = assay: Internalization into AR42J cells relative to [125I]TOC; assay type: cell-based; details: percentage compared to internal reference [125I]TOC
Description: AR42J cells (European Collection of Cell Cultures, Salisbury, UK) were grown in RPMI 1640 medium (with 2 mM, L-Glu, 10% FCS; v/v, 37 °C, 5% CO2), harvested 24 ± 2 h and seeded in 24-well poly-L-lysine plates (2.0 × 10^5 cells/well in 1 ml culture medium). After removal of the medium, the cells were washed with assay medium (300 µl, RPMI 1640 with 2 mM L-Glu, 5% BSA; v/v) and incubated in assay medium (200 µl, 15 min, 37 °C, 5% CO2). 25 µl of the ^18F-labeled ligand (20 nM) and [^125I]TOC (1 nM) in assay medium were added followed by either 25 µl TOC in assay medium (100 µM, competition experiment) or 25 µl of assay medium (internalization experiment). Cells were incubated at 37 °C for 15, 30, and 60 min (n = 3 per compound and time point), respectively, and chilled on ice. The supernatant was collected, the well washed with ice-cold RPMI 1640 (300 µl), and the two fractions combined (unbound ligand). The cells were incubated with acid wash solution (300 µl, 0.9% NaCl, 50 mM NaOAc/AcOH buffer, pH = 4.6, 15 min, 4 °C) to remove receptor-bound radioligand. The supernatant was collected, and the cells washed with 300 µl ice-cold acid wash solution (combined fractions: acid releasable, receptor bound ligand). The cells were lysed with NaOH solution (300 µl, 1 M, 15 min, RT), washed with 300 µl of the same solution, the two fractions combined (internalized ligand), and all activities quantified using a γ-counter.

[2] = molecular target: T1, human serum albumin (HSA) (Homo sapiens, UniProt P02768); assay: HSA binding by high performance affinity chromatography (HPAC); assay type: in vitro ADME; details: affinity to HSA by affinity chromatography (Chiralpak HSA column)
T1 construct: purchased H13H-2433
Description: For the determination of binding to human serum albumin (HSA) using HPLC, a Chiralpak HSA column (50 × 3 mm, 5 μm, H13H-2433) was used at a constant flow rate of 0.5 ml/min. The mobile phase (A: NH4OAc, 50 mM in H2O, pH 6.9 and B: iPrOH) was freshly prepared for each day.

[3] = Biodistribution 1 h p.i. in AR42J xenograft bearing CD1 nu/nu mice; assay type: in vivo; details: female, mouse, intravenous, total radioactivity, average ± Stdev
Description: The 8-week-old female CD1 nu/nu mice were purchased from Charles River (Sulzfeld, Germany). Animal experiments were conducted according to general animal welfare regulations (German animal protection act, as amended on 18.05.2018, Art. 141 G v. 29.3.2017 I 626, approval no. 55.2-1.2-54–2532-71-13 by the General Administration of the Free State of Bavaria; Swiss animal welfare regulations: Animal Welfare Act SR 455, license: Canton de Vaud, 3781 d). To establish tumor xenografts, AR42J cells (5 × 10^6 cells in 100 µl serum-free culture medium) were inoculated subcutaneously onto the shoulder. Mice were used for experiments when tumors had grown to a diameter of 5–9 mm (7–15 days after inoculation).
Approximately 0.5–2.5 MBq (0.05–0.20 nmol) of the ^18F-labeled ligands were injected into the tail vein of AR42J xenograft-bearing mice under isoflurane anesthesia (1.5% alveolar concentration). The mice were sacrificed 1 h post injection (n = 3–5). Organs were removed, weighed, and the activity quantified (γ-counter).
An unpaired Welch’s t-test was applied using the GraphPad Prism software (version 10.1.2). Standard deviations for tumor-to-organ (T/O) ratios were calculated using the rules of error propagation. Thresholds for statistical significance are defined as: p > 0.05 (ns); p ≤ 0.05 (*); p ≤ 0.01 (**); p ≤ 0.001 (***); p ≤ 0.0001 (****).

[4] = adrenal glands, AR42J tumor-bearing CD1 nu/nu mice, read-out: Biodistribution Adrenal Glands
[5] = blood, AR42J tumor-bearing CD1 nu/nu mice, read-out: Biodistribution Blood
[6] = femur, AR42J tumor-bearing CD1 nu/nu mice, read-out: Biodistribution Femur
[7] = heart, AR42J tumor-bearing CD1 nu/nu mice, read-out: Biodistribution Heart
[8] = intestine, AR42J tumor-bearing CD1 nu/nu mice, read-out: Biodistribution Intestine
[9] = kidney, AR42J tumor-bearing CD1 nu/nu mice, read-out: Biodistribution Kidney
[10] = liver, AR42J tumor-bearing CD1 nu/nu mice, read-out: Biodistribution Liver
[11] = lung, AR42J tumor-bearing CD1 nu/nu mice, read-out: Biodistribution Lung
[12] = muscle, AR42J tumor-bearing CD1 nu/nu mice, read-out: Biodistribution Muscle
[13] = pancreas, AR42J tumor-bearing CD1 nu/nu mice, read-out: Biodistribution Pancreas
[14] = spleen, AR42J tumor-bearing CD1 nu/nu mice, read-out: Biodistribution Spleen
[15] = stomach, AR42J tumor-bearing CD1 nu/nu mice, read-out: Biodistribution Stomach
[16] = tumor (AR42J xenograft), AR42J xenograft, CD1 nu/nu mice, read-out: Biodistribution Tumor

T1 sequence (P02768 25-609): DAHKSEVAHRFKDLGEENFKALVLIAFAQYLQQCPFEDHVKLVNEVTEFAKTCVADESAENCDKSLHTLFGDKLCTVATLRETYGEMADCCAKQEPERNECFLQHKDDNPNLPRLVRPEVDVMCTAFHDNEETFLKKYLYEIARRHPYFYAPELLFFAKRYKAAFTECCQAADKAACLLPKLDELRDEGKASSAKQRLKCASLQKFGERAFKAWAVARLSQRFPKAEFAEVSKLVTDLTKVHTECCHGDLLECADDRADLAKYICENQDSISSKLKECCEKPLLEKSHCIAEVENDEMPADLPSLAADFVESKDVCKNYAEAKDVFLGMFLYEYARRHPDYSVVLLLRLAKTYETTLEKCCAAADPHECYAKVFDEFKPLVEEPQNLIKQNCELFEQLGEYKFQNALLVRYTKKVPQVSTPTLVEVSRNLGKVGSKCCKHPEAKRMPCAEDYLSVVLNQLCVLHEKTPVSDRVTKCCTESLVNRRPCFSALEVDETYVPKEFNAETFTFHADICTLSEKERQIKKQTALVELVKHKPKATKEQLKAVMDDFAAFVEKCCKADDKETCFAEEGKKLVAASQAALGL

| Structure (SMILES) | LogDpH=7.4 ([1]; mean of n = 8) | Internalization (AR42J cells) [%] | HSA HPAC [2] [%] | tissue uptake at 1 h [3, 4] [%ID/g] | tissue uptake at 1 h [3, 5] [%ID/g] | tissue uptake at 1 h [3, 6] [%ID/g] | tissue uptake at 1 h [3, 7] [%ID/g] | tissue uptake at 1 h [3, 8] [%ID/g] | tissue uptake at 1 h [3, 9] [%ID/g] | tissue uptake at 1 h [3, 10] [%ID/g] | tissue uptake at 1 h [3, 11] [%ID/g] | tissue uptake at 1 h [3, 12] [%ID/g] | tissue uptake at 1 h [3, 13] [%ID/g] | tissue uptake at 1 h [3, 14] [%ID/g] | tissue uptake at 1 h [3, 15] [%ID/g] | tissue uptake at 1 h [3, 16] [%ID/g] | LogDpH=7.4 ([1]; mean of n = 8, listed as [^natGa]rhTATE1) |
| --- | --- | --- | --- | --- | --- | --- | --- | --- | --- | --- | --- | --- | --- | --- | --- | --- | --- |
| C[C@@H](O)[C@H](NC(=O)[C@@H]1CSSC[C@H](NC(=O)[C@@H](Cc2ccccc2)NC(=O)CN2CCN(CC(=O)O)CCN(CC(=O)NCCCC[C@@H](NC(=O)[C@@H](CNC(=O)C[N+](C)(C)Cc3ccc([Si](F)(C(C)(C)C)C(C)(C)C)cc3)NC(=O)[C@@H](CCCNC(N)=O)NC(=O)[C@@H](CCCNC(N)=O)NC(=O)[C@H](N)CCCNC(N)=O)C(=O)O)CCN(CC(=O)O)CC2)C(=O)N[C@@H](Cc2ccc(O)cc2)C(=O)N[C@H](Cc2c[nH]c3ccccc23)C(=O)N[C@@H](CCCCN)C(=O)N[C@@H]([C@@H](C)O)C(=O)N1)C(=O)O [[^18/natF][^natGa]rhTATE2.1, metal not drawn] | −2.27 | 536 | 98.8 |  |  |  |  |  |  |  |  |  |  |  |  |  |  |
| C[C@@H](O)[C@H](NC(=O)[C@@H]1CSSC[C@H](NC(=O)[C@@H](Cc2ccccc2)NC(=O)CN2CCN(CC(=O)O)CCN(CC(=O)NCCCC[C@@H](NC(=O)[C@@H](CNC(=O)C[N+](C)(C)Cc3ccc([Si](F)(C(C)(C)C)C(C)(C)C)cc3)NC(=O)[C@@H](CCCNC(N)=O)NC(=O)[C@@H](CCCNC(N)=O)NC(=O)[C@H](N)CCC(=O)O)C(=O)O)CCN(CC(=O)O)CC2)C(=O)N[C@@H](Cc2ccc(O)cc2)C(=O)N[C@H](Cc2c[nH]c3ccccc23)C(=O)N[C@@H](CCCCN)C(=O)N[C@@H]([C@@H](C)O)C(=O)N1)C(=O)O [[^18/natF][^natGa]rhTATE2.2, metal not drawn] | −2.30 | 550 | 94.3 | 4.35 ± 0.69 | 0.39 ± 0.19 | 1.7 ± 0.45 | 0.33 ± 0.01 | 2.87 ± 0.15 | 32.6 ± 3.5 | 2.43 ± 0.36 | 6.29 ± 0.65 | 0.06 ± 0.01 | 31.5 ± 2.32 | 1.31 ± 0.2 | 13.4 ± 1.6 | 27.9 ± 4.78 |  |
| C[C@@H](O)[C@H](NC(=O)[C@@H]1CSSC[C@H](NC(=O)[C@@H](Cc2ccccc2)NC(=O)CN2CCN(CC(=O)O)CCN(CC(=O)NCCCC[C@@H](NC(=O)[C@@H](CNC(=O)C[N+](C)(C)Cc3ccc([Si](F)(C(C)(C)C)C(C)(C)C)cc3)NC(=O)[C@@H](CN)NC(=O)[C@@H](CCC(=O)O)NC(=O)[C@H](N)CCC(=O)O)C(=O)O)CCN(CC(=O)O)CC2)C(=O)N[C@@H](Cc2ccc(O)cc2)C(=O)N[C@H](Cc2c[nH]c3ccccc23)C(=O)N[C@@H](CCCCN)C(=O)N[C@@H]([C@@H](C)O)C(=O)N1)C(=O)O [[^18/natF][^natGa]rhTATE2.3, metal not drawn] | −2.12 | 619 | 96.0 |  |  |  |  |  |  |  |  |  |  |  |  |  |  |
| C[C@@H](O)[C@H](NC(=O)[C@@H]1CSSC[C@H](NC(=O)[C@@H](Cc2ccccc2)NC(=O)CN2CCN(CC(=O)O)CCN(CC(=O)NCCCC[C@@H](NC(=O)[C@@H](CNC(=O)C[N+](C)(C)Cc3ccc([Si](F)(C(C)(C)C)C(C)(C)C)cc3)NC(=O)[C@@H](CCCCN)NC(=O)[C@@H](CCC(=O)O)NC(=O)[C@H](N)CCC(=O)O)C(=O)O)CCN(CC(=O)O)CC2)C(=O)N[C@@H](Cc2ccc(O)cc2)C(=O)N[C@H](Cc2c[nH]c3ccccc23)C(=O)N[C@@H](CCCCN)C(=O)N[C@@H]([C@@H](C)O)C(=O)N1)C(=O)O [[^18/natF][^natGa]rhTATE2.4, metal not drawn] | −2.28 | 841 | 92.7 |  |  |  |  |  |  |  |  |  |  |  |  |  |  |
| CC(=O)N[C@@H]1[C@@H](O)[C@H](O)[C@@H](CO)O[C@H]1NC(=O)C[C@H](NC(=O)C[N+](C)(C)Cc1ccc([Si](F)(C(C)(C)C)C(C)(C)C)cc1)C(=O)N[C@@H](CC(=O)O)C(=O)N[C@@H](CC(=O)O)C(=O)NCCOCCOCC(=O)N[C@H](Cc1ccccc1)C(=O)N[C@H]1CSSC[C@@H](C(=O)N[C@H](C(=O)O)[C@@H](C)O)NC(=O)[C@H]([C@@H](C)O)NC(=O)[C@H](CCCCN)NC(=O)[C@@H](Cc2c[nH]c3ccccc23)NC(=O)[C@H](Cc2ccc(O)cc2)NC1=O [[^nat/18F]SiTATE, SiFAlin-Asn(Ac-NHβGlc)Asp2-PEG1-TATE, reference compound] | −1.27 | 236 | 86.8 | 1.89 ± 0.37 | 0.81 ± 0.11 | 1.54 ± 0.34 | 0.47 ± 0.06 | 1.67 ± 0.21 | 16.3 ± 1 | 1.97 ± 0.25 | 3.38 ± 0.62 | 0.15 ± 0.02 | 8.94 ± 1.98 | 0.66 ± 0.08 | 6.75 ± 0.58 | 22.7 ± 2.68 |  |
| C[C@@H](O)[C@H](NC(=O)[C@@H]1CSSC[C@H](NC(=O)[C@@H](Cc2ccccc2)NC(=O)CN2CCN(CC(=O)O)CCN(CC(=O)NC[C@@H](NC(=O)C[N+](C)(C)Cc3ccc([Si](F)(C(C)(C)C)C(C)(C)C)cc3)C(=O)O)CCN(CC(=O)O)CC2)C(=O)N[C@@H](Cc2ccc(O)cc2)C(=O)N[C@H](Cc2c[nH]c3ccccc23)C(=O)N[C@@H](CCCCN)C(=O)N[C@@H]([C@@H](C)O)C(=O)N1)C(=O)O [[^nat/18F][^natGa]rhTATE1, N-SiFAlin-N, N-Me2-Gly-D-Dap(trans-[^natGa]DOTA-TATE), metal not drawn] | −1.03 |  | 95.4 |  |  |  |  |  |  |  |  |  |  |  |  |  | -1.03 |
| C[C@@H](O)[C@H](NC(=O)[C@@H]1CSSC[C@H](NC(=O)[C@@H](Cc2ccccc2)NC(=O)CN2CCN(CC(=O)O)CCN(CC(=O)NCCCC[C@@H](NC(=O)C[N+](C)(C)Cc3ccc([Si](F)(C(C)(C)C)C(C)(C)C)cc3)C(=O)O)CCN(CC(=O)O)CC2)C(=O)N[C@@H](Cc2ccc(O)cc2)C(=O)N[C@H](Cc2c[nH]c3ccccc23)C(=O)N[C@@H](CCCCN)C(=O)N[C@@H]([C@@H](C)O)C(=O)N1)C(=O)O [[^nat/18F][^natGa]rhTATE2, N-SiFAlin-N, N-Me2-Gly-D-Lys(trans-[^natGa]DOTA-TATE), metal not drawn] | −1.19 |  | 94.5 |  |  |  |  |  |  |  |  |  |  |  |  |  |  |

From paper PMC12920295, “Novel radiohybrid PET-Tracers for SST2-targeted imaging of neuroendocrine tumors” (European Journal of Nuclear Medicine and Molecular Imaging, 2025)
